# Assay results reported in the OPERA property sets (Mansouri et al. 2018).
# Conditions: not given
Structure (SMILES),melting point [°C],boiling point [°C],log10 vapour pressure (mmHg),log10 Henry constant (atm·m³/mol),log10 Koc (L/kg),logP,ready biodegradability,log10 Koa,log10 biodegradation half-life (days)
ClCc1ccc2c(c1)OCO2,20.5,,,,,,,,
CC12CCC(CC1)C(C)(C)O2,1.5,176,0.279,,,,,,
NC(=O)COC(=O)c1ccccc1,121,,,,,,,,
NC(=O)CN1CCCC1=O,152,,,,,,,,
ClCC(Cl)C(Cl)=C(Cl)C(Cl)CCl (stereo unspecified),58.5,,,,,,,,
COc1ccc(O)c([N+](=O)[O-])c1,79,,,-5.73,,,,,
CC=NNc1ccccc1,99.5,,,,,,,,
CCCCCCOC(=O)c1ccccc1C(=O)OCCCCCC,-58,,-4.85,,4.72,,,,
CC(C)(O)C(C)(C)O,43,,,,,,,,
Brc1cc(Br)c(Oc2c(Br)cc(Br)c(Br)c2Br)cc1Br,,,,,,8.27,,,
CCCCCCCC=CC=O,,230,,,,,,,
CC(C)NCCO,128,173,,,,,,,
CC(=O)Nc1ccc(C#N)cc1,207,,,,,,,,
COc1cc(NC(=O)CC(C)=O)c(OC)cc1Cl,,,,,,,not readily biodegradable,,
CC(=O)CC(=O)OC(C)C,-27.3,186,,,,,,,
CCOC(OCC)N(C)C,,129,,,,,,,
CCCCCCCOC(=O)CCCCCC,-33,277,,,,,,,
OCCC1CCCCC1,-20,208,-0.78,,,,,,
CC(C)OC(=O)C(C)O (stereo unspecified),,167,,,,,,,
ClC(Cl)=C(Cl)C(Cl)Cl,,185,,,,,,,
CCCCCCCCCCCCCC(=O)N(CCO)CCO,,,,,,,readily biodegradable,,
CC(C)CCOC(=O)c1ccccc1O,,278,,,,,readily biodegradable,,
C=C(C)C(N)=O,110,,-1.07,,,,,,
CN(C1CCCCC1)C1CCCCC1,,265,,,,,,,

Structure (SMILES),melting point [°C],boiling point [°C],log10 vapour pressure (mmHg),log10 Henry constant (atm·m³/mol),log10 Koc (L/kg),logP,ready biodegradability,log10 Koa,log10 biodegradation half-life (days)
Cc1ccc(N(CC2=NCCN2)c2cccc(O)c2)cc1,174,,,,,,,,
O=C(Oc1ccc2ccccc2c1)c1ccccc1,107,,,,,,,,
COc1ccc(C[C@H]2c3cc(OC)c(OC)cc3CCN2C)cc1O,176,,,,,,,,
C=CC(=O)Oc1c(Br)cc(Cl)c2cccnc12,100,,,,,,,,
O=P(O)(c1ccccc1)c1ccccc1,194,,,,,,,,
CC(=O)OCCCCOC(C)=O,12,229,,,,,,,
CCOC(=O)C(Cl)(Cl)Cl,,168,0.581,,,,,,
C=C(C)C1CCC=C(C)C1 (stereo unspecified),,176,,,,,,,
CCCCCCCCCCCCCC(=O)OCC,12.3,295,,,,,,,
CC(C)(S)C(=O)O,47,,,,,,,,
O=C(O)C(O)c1ccccc1 (racemic),124,,,,,,,,
CC(C)OC(=O)COc1ccc(Cl)cc1Cl,5,,-3.63,,,,,,
CC(C)(C)c1cccc(C(C)(C)C)n1,2.2,,,,,,,,
NC(=O)C(CCN1CCCCCC1)(c1ccccc1)c1ccccc1,142,,,,,,,,
CCC=CCC(=O)O,12,208,,,,,,,
COc1c2c(cc3c1OCO3)CCN(C)C2,56,,,,,,,,
CC(C)CCCCC(C)C,-54.9,160,,,,,,,
CC(C)CC(=O)C(C)C,,148,,,,,,,
C[C@@H]1C[C@H]2[C@@H]3C[C@H](F)C4=CC(=O)C=C[C@]4(C)[C@@]3(F)[C@@H](O)C[C@]2(C)[C@H]1C(=O)CO,242,,,,,,,,
CC1Cc2ccccc2CC1C (stereo unspecified),-5,,,,,,,,
Cc1ccc(CC(=O)O)cc1,93,265,,,,,,,
CC(Br)Br,-63,108,1.41,,,,,,
CC[Si](F)(CC)CC,,110,1.57,,,,,,
O=C(Cl)N(c1ccccc1)c1ccccc1,83,,,,,,,,

Structure (SMILES),melting point [°C],boiling point [°C],log10 vapour pressure (mmHg),log10 Henry constant (atm·m³/mol),log10 Koc (L/kg),logP,ready biodegradability,log10 Koa,log10 biodegradation half-life (days)
O=Cc1cc2c(cc1[N+](=O)[O-])OCO2,93.5,,,,,,,,
CC(C)C1=CC2C(C)CC1C1C(=O)OC(=O)C21 (stereo unspecified),,,,,,,not readily biodegradable,,
Nc1cccc2cnccc12,128,,,,,,,,
Cn1c([N+](=O)[O-])cnc1/C=C/c1ccnc(N)n1,234,,,,,,,,
CC(CN(C)C)CN1c2ccccc2CCc2ccccc21 (stereo unspecified),45,,,,,,,,
Cc1cccc2c1CCCC2C (stereo unspecified),,239,,,,,,,
COc1cc(C=O)cc(OC)c1,46.3,,,,,,,,
CC(O)CNCC(C)O (stereo unspecified),44.5,250,-3.9,,,,readily biodegradable,,
COC(=O)C=C(C)C,,136,,,,,,,
Clc1cc2oc3c(Cl)c(Cl)c(Cl)c(Cl)c3c2cc1Cl,,,,,,,,10.8,
CC[N+]1(CC)CCC(OC(=O)C(O)(c2ccccc2)c2ccccc2)C1.[Br-] (stereo unspecified),204,,,,,,,,
CCn1cc(C(=O)O)c(=O)c2ccc(C)nc21,230,,,,,,,,
O=C(O)CCCCC1CCSS1 (stereo unspecified),60.5,,,,,,,,
CCCCCCCCCCC(C)=O,21,246,-1.69,,,,,,
CC1OC(C)OC(C)OC(C)O1 (stereo unspecified),,,,,2.38,,not readily biodegradable,,
CC(C)N(Cc1ccccc1)C(=O)C(C)(C)C,,,-3.18,,,,,,
CC(C)(C)CC(C)(C)c1ccc(OCCOCC[N+](C)(C)Cc2ccccc2)cc1,,,,,,,not readily biodegradable,,
CCc1ccc(Br)cc1,-43.5,204,-0.155,,,,,,
COc1ccccc1-c1ccccc1,29,274,,,,,,,
CCCC(C)C(C)(C)CC (stereo unspecified),,162,,,,,,,
CCC(=O)Nc1nc(C)c(Cl)s1,159,,,,,,,,
CCC(C)(C)C(C)(C)C,-9.8,140,0.976,,,,,,
c1ccc2c(c1)ccc1ccccc12,99.2,340,-3.92,-4.37,4.35,,readily biodegradable,7.57,1.62
Cc1c(C2(c3cc(Br)c(O)c(Br)c3C)OS(=O)(=O)c3ccccc32)cc(Br)c(O)c1Br,218,,,,,,,,

Structure (SMILES),melting point [°C],boiling point [°C],log10 vapour pressure (mmHg),log10 Henry constant (atm·m³/mol),log10 Koc (L/kg),logP,ready biodegradability,log10 Koa,log10 biodegradation half-life (days)
CCCCCCCCC=CCCCCCCCC(=O)OCCS(=O)(=O)[O][Na],,,,,,,readily biodegradable,,
O=CN1CCCCC1,,222,,,,,,,
C#CC(OC(=O)C1C(C=C(C)C)C1(C)C)/C(C)=C/CC (stereo unspecified),,296,-3.98,,,,,,
ClC1=C(Cl)[C@]2(Cl)[C@H]3[C@H]([C@@H]4C=C[C@H]3C4)[C@@]1(Cl)C2(Cl)Cl (racemic),,,-3.92,-4.36,4.69,,,8.08,
Cc1cc(=O)n(-c2ccccc2)n1C,114,319,,,,,,,
CCOCCOCC,-74,119,1.53,,,,,,
O=C(O)CNC(=O)c1ccccc1,192,,,,,,readily biodegradable,,
NC(=O)c1c(Cl)cccc1Cl,198,,,,0.53,,not readily biodegradable,,
CCCCS/C(=N\c1cccnc1)SCc1ccc(C(C)(C)C)cc1,32,,,,,,,,
C=CCOC(=O)CC(C)=O,-85,196,,,,,,,
Clc1cc2c(oc3c(Cl)cccc32)c(Cl)c1Cl,190,,-7.4,,,,,,
Nc1ccccc1Cl,-14,209,-0.69,,,,not readily biodegradable,,
O=S(=O)(O)c1ccccc1,65,,,,,,readily biodegradable,,
CCc1ccc2cc3ccccc3cc2c1,152,,-5.28,,,,,,
O=C(Nc1ccc(Br)cc1)c1cc(Br)ccc1O,242,,,,,,,,
CC(=O)Nc1cccc(C)c1,65.5,303,,,1.45,,,,
FCCl,-133,-9.1,3.39,,,,,,
CC(C=NO)=NO,157,,,,,,,,
O=S(=O)(Cl)C(F)(F)F,,30.5,,,,,,,
CCOC(=O)C(Br)(Br)Br,,225,,,,,,,
O=C1CCCCCO1,-18,215,-0.87,,,,readily biodegradable,,
CC(=O)OCC1=C[C@@H]2OC(=O)C3=COC(O[C@@H]4O[C@H](CO)[C@@H](O)[C@H](O)[C@H]4O)C1C32 (stereo partly specified),132,,,,,,,,
O=C(O)Cc1cccc(Br)c1,101,,,,,,,,

# Same assay, conditions: fish
Structure (SMILES),log10 biotransformation half-life (days),log10 BCF
Brc1cc(Br)c(Oc2c(Br)cc(Br)c(Br)c2Br)cc1Br,1.65,
COP(=S)(OC)Oc1ccc(S(C)=O)c(C)c1 (stereo unspecified),-0.38,0.12
Clc1ccc(-c2cc(Cl)cc(Cl)c2Cl)cc1,2.43,
Clc1ccc(-c2c(Cl)c(Cl)cc(Cl)c2Cl)c(Cl)c1Cl,2.5,
Clc1cc2oc3c(Cl)c(Cl)c(Cl)c(Cl)c3c2cc1Cl,,3.9
c1ccc2c(c1)ccc1ccccc12,0.7,3.4
ClC1=C(Cl)[C@]2(Cl)[C@H]3[C@H]([C@@H]4C=C[C@H]3C4)[C@@]1(Cl)C2(Cl)Cl (racemic),1.37,3.74
Nc1ccccc1Cl,-0.61,0.95
